What was measured:
[1] = tested on: inner forearm of each panelist; assay: Corneometer analysis of test gel formulations, scaled moisturization performance (SMP); assay type: in vivo; details: average of 8 panelists, water = 0, glycerol = 1, 22° C., 50% RH; for Corneometer SMP results, 6 hours: 6 hours after single application of gel with 5 wt % active; for Corneometer SMP results, 30 hours: 30 hours after single application of gel with 5 wt % active
Description: To prepare a gel formulation, deionized water was added to a 4 oz. tall jar that was set up for mixing using an overhead mixer and a jiffy blade. The water was then mixed at a speed that created a good vortex that nearly reached the bottom of the jar (e.g., about 700 rpm). To this, Carbopol® 940 (cross-linked polyacrylate polymer available from Lubrizol, Wickliffe, Ohio) was slowly added and mixed for at least 15 minutes until homogeneous. Triethanolamine (TEA) was then added and the mixing speed was adjusted overhead to about 200 rpm and continued mixing for about 10 minutes (e.g., product viscosity increased). To this mixture was added 5 wt % of the moisturizing agent, as either a single agent or a combination of agents, followed by 0.5 wt % Glydant™ Plus™ (a preservative available from Lonza, Basel, Switzerland) and the remaining, balance water. Mixing was continued at 200 rpm for about 15-20 minutes. The mixture was then removed from the mixer and the final pH was measured. Prior to analysis, samples were centrifuged at 2000 rpm for 15 minutes to remove suspended air pockets from the gel formulation.
About 30 μl of each test gel formulation was applied once (e.g., in a single application with no additional re-applications) in a circle with diameter of about 3 cm on the inner forearm of each panelist. Moisture levels were measured using a Corneometer® CM 825 (available from CK Industries) prior to application of the test gel formulations, and at 6 hour and 30 hour intervals after application, at a temperature of 22° C. and relative humidity of 50%.
To facilitate more meaningful comparisons of the corneometer data for the different test formulations, the following adjustment were made to minimize the variations in the response of humectant treatment: the moisturization performance for glycerol was defined to be 1, and that for water to be zero, then the scaled moisturization performance (SMP) for a specific moisturizing active was defined as: […]
RActive, Rwater, and Rglycerol were the actual corneometer readings of the test gel formulations comprising the active moisturizing agent(s), water, and glycerol, respectively, for an individual panelist at a specific time after the initial treatment. The overall SMP of each tested activewas then the average of SMP over 8 panelists. […] The SMP values illustrated in FIG. 4 provide narrower standard deviations over 8 panelists when compared to actual corneometer readings in FIG. 3.
Using this procedure, corneometer measurements were taken at 6 hours and 30 hours for hydroxyethyl urea, glycerol, the DGA acetamide:glycerol (83:17 wt %) of Example 1, the DGA Acetamide of Example 2, a 1:1 mixture of the DGA Acetamide of Example 2 with hydroxyethyl urea, and a 1:1 mixture of the DGA Acetmaide of Example 2 with glycerol. Measurements were taken at six hours and 30 hours on eight subjects, and calculated as scaled moisturization performance values.

[2] = Dynamic Vapor Sorption (DVS) analysis, equilibrium water absorption; assay type: physicochemical; details: DVS at 50% humidity, 25° C., single moisturizing agents / Ex. 1 and 2 products
Description: Dynamic Vapor Sorption (DVS) technique was used to measure the moisture intake of a specific compound at certain humidity level. DVS Intrinsic instrument manufactured by Surface Measurement Systems UK Ltd. (London, United Kingdom) was used to measure DVS. The following measurement procedure was used to determine the water vapor absorption of a specific composition.
A uniform aqueous solution of a target composition was made at 50% concentration. About 1.2 to 1.6 mg of the prepared aqueous solution was added to DVS instrument at zero tare balance. The temperature was then set at 25° C. A measurement was performed at 90% humidity to ensure that the sample absorbs the highest level of water in order to minimize the mass transfer barrier during the evaporation process. The dynamics of water absorption was determined by the weight change per minute; with water absorption equilibrium defined as the time at which the weight change per minute was less than 0.005% of the sample weight. The equilibrium weight at 0% humidity is the sample weight by itself. Thus, the percentage of equilibrium water absorption at various humidity levels was calculated.
Using the above procedure, DVS was used to evaluate water absorption for compositions comprising DGA Acetamide, other moisturizing agents, and combinations of DGA Acetamide and various additional moisturizing agents. First, DVS values were obtained at 50% humidity for the DGA acetamide products of Examples 1 and 2 above and other selected moisturizing agents.
Then, 1:1 mixtures based on weight were made of each of the DGA Acetamide products of Examples 1 and 2 above with each of the other four moisturizing agents, where the DGA acetamide product of Example 1 is DGA Acetamide:glycerol (83 wt %:17 wt %) and the DGA acetamide product of Example 2 is substantially 100% DGA acetamide. DVS measurements were taken at 50% humidity, using the same amount of total moisturizing agent. It was expected that the DVS values of the mixtures with the other four moisturizing agents would have been the average of the DVS values of each of the moisturizing agents individually, based on the weight percent of each in the mixture.

| Compound | Corneometer SMP results, 6 hours [1] | Corneometer SMP results, 30 hours [1] | % water absorbed (based on weight of moisturizing agent) [2] [%] |
| --- | --- | --- | --- |
| CC(=O)NCCOCCO [C, N-acetyl diglycolamine] | 0.80 | 0.92 | 26.9 |
| O=C1CCC(C(=O)[O-])N1.[Na+] (centres unmarked) [E, sodium pyrrolidone carboxylate] |  |  | 28.7 |
| CC(O)C(=O)[O-].[Na+] (centres unmarked) [F, Sodium lactate] |  |  | 35.1 |
| NC(=O)NCCO [A, Hydroxyethyl urea] | 0.91 | 1.03 | 19.7 |
| OCC(O)CO [D, Glycerol] | 1.0 | 1.0 | 27.7 |

Reference: patent publication US11154476B2, “Synergistic effects of alkanolamine alkylamides and other moisturizing agents” (Akzo Nobel Chemicals International, B.V., priority 2016, dated 2021)
